Laboratory results published in ChEMBL document CHEMBL1201862, “PubChem BioAssay data set” (2004).
Calls of active or inactive are those of the source.

Tests used:
[1] = target: T1, Zinc finger protein mex-5 (Caenorhabditis elegans, UniProt Q9XUB2); experiment: MEX-5/TCR-2 RNA interaction inhibitors, dose response, biochemical, C. elegans, fluorescence polarization (AID 1960)
T1 sequence (Q9XUB2 whole entry): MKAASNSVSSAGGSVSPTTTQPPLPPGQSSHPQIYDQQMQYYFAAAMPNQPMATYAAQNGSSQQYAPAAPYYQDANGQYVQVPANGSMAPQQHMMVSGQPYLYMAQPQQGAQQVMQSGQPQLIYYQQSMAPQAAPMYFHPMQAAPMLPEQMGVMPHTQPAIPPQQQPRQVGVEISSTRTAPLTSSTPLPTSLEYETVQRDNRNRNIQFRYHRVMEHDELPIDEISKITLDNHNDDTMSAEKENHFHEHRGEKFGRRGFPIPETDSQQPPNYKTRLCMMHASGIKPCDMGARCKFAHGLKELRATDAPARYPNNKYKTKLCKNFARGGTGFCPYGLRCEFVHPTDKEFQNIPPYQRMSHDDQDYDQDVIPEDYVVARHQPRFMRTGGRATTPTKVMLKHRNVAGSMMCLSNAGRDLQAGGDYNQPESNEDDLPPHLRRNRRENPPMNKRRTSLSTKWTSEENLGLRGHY

Insulin-degrading enzyme [2] = target: T2, Insulin-degrading enzyme (Homo sapiens, UniProt P14735); experiment: activators of recombinant IDE enzyme, dose response, counter-screen for IDE activator project, biochemical, fluorescence polarization (AID 588681)
T2 sequence (P14735 whole entry): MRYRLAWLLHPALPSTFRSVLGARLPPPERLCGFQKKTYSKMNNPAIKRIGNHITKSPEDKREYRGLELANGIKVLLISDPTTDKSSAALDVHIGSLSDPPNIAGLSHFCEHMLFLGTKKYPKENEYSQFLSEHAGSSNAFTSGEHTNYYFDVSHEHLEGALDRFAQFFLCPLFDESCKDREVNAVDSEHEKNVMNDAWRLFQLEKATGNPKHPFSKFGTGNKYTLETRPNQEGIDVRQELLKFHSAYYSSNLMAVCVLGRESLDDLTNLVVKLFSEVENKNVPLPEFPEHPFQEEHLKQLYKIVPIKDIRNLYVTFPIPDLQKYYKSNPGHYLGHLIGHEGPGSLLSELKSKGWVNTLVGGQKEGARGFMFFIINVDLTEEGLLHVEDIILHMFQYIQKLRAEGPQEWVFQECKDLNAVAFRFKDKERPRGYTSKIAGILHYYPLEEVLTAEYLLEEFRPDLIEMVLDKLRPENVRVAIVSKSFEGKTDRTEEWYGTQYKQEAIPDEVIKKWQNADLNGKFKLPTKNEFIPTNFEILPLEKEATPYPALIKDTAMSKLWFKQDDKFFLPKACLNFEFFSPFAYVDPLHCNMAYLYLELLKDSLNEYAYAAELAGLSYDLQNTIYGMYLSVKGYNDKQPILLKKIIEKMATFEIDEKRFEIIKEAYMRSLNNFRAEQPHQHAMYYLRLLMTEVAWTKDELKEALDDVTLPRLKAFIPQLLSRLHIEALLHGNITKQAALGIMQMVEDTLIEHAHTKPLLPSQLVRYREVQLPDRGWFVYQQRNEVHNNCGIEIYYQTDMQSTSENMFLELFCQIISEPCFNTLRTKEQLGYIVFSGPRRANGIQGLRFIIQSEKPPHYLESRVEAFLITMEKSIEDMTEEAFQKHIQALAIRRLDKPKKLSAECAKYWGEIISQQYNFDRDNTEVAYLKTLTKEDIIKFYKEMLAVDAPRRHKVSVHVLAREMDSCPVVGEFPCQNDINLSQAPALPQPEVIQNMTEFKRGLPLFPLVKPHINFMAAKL

Insulin-degrading enzyme [3] = target: T2, Insulin-degrading enzyme; experiment: activators of endogenous IDE in HEK cells, dose response, cell-based, fluorescence polarization (AID 588439); type: functional
[4] = target: T3, RNA-binding protein pos-1 (Caenorhabditis elegans, UniProt G5EF15); experiment: inhibitors of POS-1/mex-3 RNA binding, dose response, biochemical, fluorescence polarization (AID 1964);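 also: purified POS-1 fused to maltose binding protein made in E. coli; potency of compounds blocking POS-1 binding to fluorescent RNA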
T3 sequence (G5EF15 whole entry): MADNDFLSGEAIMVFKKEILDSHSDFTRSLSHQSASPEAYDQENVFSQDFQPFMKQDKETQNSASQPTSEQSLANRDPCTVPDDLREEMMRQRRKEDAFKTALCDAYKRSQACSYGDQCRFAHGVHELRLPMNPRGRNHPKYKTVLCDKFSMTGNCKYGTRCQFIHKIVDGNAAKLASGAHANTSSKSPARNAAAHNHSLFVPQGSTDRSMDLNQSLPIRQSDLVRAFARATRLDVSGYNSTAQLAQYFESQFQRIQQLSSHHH

HEK293 [5] = experiment: HEK cell cytotoxicity by LDH release, dose response, cytotoxicity control for IDE activator project, fluorescence, HEK cells (AID 588440); type: functional, cell-based; settings: Homo sapiens;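 also: cytotoxicity by LDH release measuring loss of membrane integrity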
[6] = NIH-3T3 fibroblast cytotoxicity, dose response, cytotoxicity control, cell-based, fluorescence, Alamar Blue, secondary assay (AID 2327); type: functional;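 also: NIH-3T3 mouse fibroblasts cultured with fluconazole at 8 µg/mL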
HEK293 [7] = experiment: optical interference in Abeta FP readout, dose response, artefact control for IDE activator project, biochemical, fluorescence polarization (AID 588442); type: functional, cell-based; settings: Homo sapiens
[8] = C. albicans growth with fluconazole, confirmation, fluorescence, retest (AID 2467); type: functional, cell-based
[9] = target: T4, High affinity choline transporter 1 (Homo sapiens, UniProt Q9GZV3); experiment: CHT activators, dose response, cell-based, 10-point CRC, membrane potential dye (AID 602376); type: functional
T4 sequence (Q9GZV3 whole entry): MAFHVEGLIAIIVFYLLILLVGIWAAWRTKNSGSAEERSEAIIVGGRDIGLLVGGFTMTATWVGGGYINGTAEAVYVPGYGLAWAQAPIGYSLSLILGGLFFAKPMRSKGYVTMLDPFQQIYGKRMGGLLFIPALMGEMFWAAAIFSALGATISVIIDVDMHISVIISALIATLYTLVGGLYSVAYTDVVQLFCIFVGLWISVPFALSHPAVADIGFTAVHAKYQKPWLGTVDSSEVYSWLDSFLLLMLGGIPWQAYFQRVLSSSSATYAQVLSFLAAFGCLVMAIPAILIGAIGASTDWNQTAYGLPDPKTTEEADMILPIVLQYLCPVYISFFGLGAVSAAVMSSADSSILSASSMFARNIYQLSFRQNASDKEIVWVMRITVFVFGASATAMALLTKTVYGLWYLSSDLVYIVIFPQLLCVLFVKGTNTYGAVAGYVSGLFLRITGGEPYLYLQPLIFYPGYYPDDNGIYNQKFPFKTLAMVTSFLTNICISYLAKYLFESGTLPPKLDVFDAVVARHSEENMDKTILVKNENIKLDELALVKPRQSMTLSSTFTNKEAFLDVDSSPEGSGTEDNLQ

SMILES | EC50 [1] | EC50 (Insulin-degrading enzyme [2]) | EC50 (Insulin-degrading enzyme [3]) | EC50 [4] | IC50 (HEK293 [5]) | EC50 [6] | EC50 (HEK293 [7]) | EC50 [8] | EC50 [9]
O=C1c2cccc3c(O)ccc(c23)C(=O)N1Cc1ccccc1 | 0.183 µM (inconclusive) | > 54.7 µM (inactive) | > 54.7 µM (inactive) | 2.62 µM (active) | > 89.2 µM (inactive) | 85.7 µM (active) | > 54.7 µM (inactive) | 0.082 µM (active) | 
COc1cc2c(cc1OC)C(c1cccs1)N(C(S)=NC(C)C)CC2 (centres undefined) |  |  |  |  |  |  |  |  | 17.5 µM (active)
